1 compound from patent US10292388B2, “Malononitrile compounds for controlling animal pests” (BASF SE, priority 2012, dated 2019) can be followed below.

Assay [1] deals with boll weevil (Anthonomus grandis). Nature of the assay: Boll weevil microtiter plate diet test. It is filed as in vivo. As to conditions: 120 h, sprayed onto insect diet with eggs, egg and larval mortality after 5 days, read-out: mortality in comparison with untreated controls. As to the method: B.9 Boll Weevil (Anthonomus grandis)
For evaluating control of boll weevil (Anthonomus grandis) the test unit consisted of 24-well-microtiter plates containing an insect diet and 20-30 A. grandis eggs. The compounds were formulated using a solution containing 75% v/v water and 25% v/v DMSO. Different concentrations of formulated compounds were sprayed onto the insect diet at 20 μl, using a custom built micro atomizer, at two replications. After application, microtiter plates were incubated at about 23±1° C. and about 50±5% relative humidity for 5 days. Egg and larval mortality was then visually assessed.

Assay [2] relates to yellow fever mosquito (Aedes aegypti). The assay can be described thus: whole plant or invertebrate. It is filed as in vivo. Particulars: 48 h, freshly hatched larvae in tap water, larval mortality after 2 days, read-out: mortality in comparison with untreated controls. As to the method: B.12 Yellow Fever Mosquito (Aedes aegypti)
For evaluating control of yellow fever mosquito (Aedes aegypti) the test unit consisted of 96-well-microtiter plates containing 200 μl of tap water per well and 5-15 freshly hatched A. aegypti larvae. The compounds or mixtures were formulated using a solution containing 75% water and 25% DMSO. Different concentrations of formulated compounds or mixtures were sprayed onto the insect diet at 2.5 μl, using a custom built micro atomizer, at two replications. After application, microtiter plates were incubated at 28±1° C., 80±5% relative humidity for 2 days. Larval mortality was then visually assessed.

Bounds are passed on as bounds.

With `C#Cc1ccc(CC(C#N)(C#N)c2ccc(C#N)cc2)cc1` [II-77, 2-(4-cyanophenyl)-2-[(4-ethynylphenyl)methyl]-propanedinitrile], the mortality at 2500 ppm in assay [1] and in assay [2] was at least 75% each time.
